# Laboratory results reported in patent publication US9957264B2 (Merck Sharp & Dohme Corp., priority 2013, dated 2018).
# Columns and labels:
# [1] = biological target: JAK1 (recombinant purified GST-tagged catalytic domain) (Homo sapiens (Human), UniProt P23458); assay: Jak Biochemical HTRF Assay (JAK1); conditions: [ATP] 31.8 μM
# Outline: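 Read-out is the 665/615 nm time-resolved FRET ratio from Eu-pY20 antibody and streptavidin-Dylight 650 bound to phosphorylated biotin-peptide. Reactions ran 120 min at room temperature after ATP start. Inhibition normalized to untreated controls gave IC50 via 4-parameter fit.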
# [2] = biological target: JAK2 (recombinant purified GST-tagged catalytic domain) (Homo sapiens (Human), UniProt O60674); assay: Jak Biochemical HTRF Assay (JAK2); conditions: [ATP] 8.5 μM
# Sequence of JAK2 (recombinant purified GST-tagged catalytic domain) (O60674 849-1124): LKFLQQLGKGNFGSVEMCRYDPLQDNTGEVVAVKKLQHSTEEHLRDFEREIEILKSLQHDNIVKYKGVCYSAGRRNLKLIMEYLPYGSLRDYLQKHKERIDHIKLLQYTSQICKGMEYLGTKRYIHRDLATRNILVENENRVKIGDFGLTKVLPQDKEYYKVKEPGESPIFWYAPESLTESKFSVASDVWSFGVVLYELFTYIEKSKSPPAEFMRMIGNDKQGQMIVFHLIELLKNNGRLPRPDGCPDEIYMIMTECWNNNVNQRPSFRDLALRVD
# Sequence of JAK1 (recombinant purified GST-tagged catalytic domain) (P23458 875-1153): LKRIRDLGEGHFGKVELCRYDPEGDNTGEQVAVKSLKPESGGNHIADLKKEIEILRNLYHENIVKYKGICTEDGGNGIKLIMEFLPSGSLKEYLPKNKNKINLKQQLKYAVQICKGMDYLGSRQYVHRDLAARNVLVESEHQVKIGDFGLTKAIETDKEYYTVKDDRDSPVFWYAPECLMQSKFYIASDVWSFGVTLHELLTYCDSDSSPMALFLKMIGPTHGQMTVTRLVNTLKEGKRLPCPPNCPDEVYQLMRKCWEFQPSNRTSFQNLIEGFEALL
Compound,IC50 [1],IC50 [2]
"CC(C)(C)OC(=O)[C@H]1CC[C@@](CC#N)(n2nc(Nc3ccc([C@H](N)C(F)(F)F)cc3)c3c(=O)[nH]ccc32)CO1 (single isomer, unassigned) [Example 5-52, (2R,5S)-tert-butyl 5-(3-((4-((S or R)-1-amino-2,2,2-trifluoroethyl)phenyl)amino)-4-oxo-4,5-dihydro-1H-pyrazolo[4,3-c]pyridin-1-yl)-5-(cyanomethyl) tetrahydro-2H-pyran-2-carboxylate]",11.7 nM,30.3 nM
"CCOC(=O)C(C)(C)C(O)(c1ccc(Nc2nn([C@]3(CC#N)CCCOC3)c3cc[nH]c(=O)c23)cc1)C(F)(F)F (single isomer, unassigned) [Example 5-112, (S or R)-ethyl 3-(4-((1-((3S)-3-(cyanomethyl)tetrahydro-2H-pyran-3-yl)-4-oxo-4,5-dihydro-1H-pyrazolo[4,3-c]pyridin-3-yl)amino)phenyl)-4,4,4-trifluoro-3-hydroxy-2,2-dimethylbutanoate]",1.07 nM,2.53 nM
"COC(=O)N1CCC(CC#N)(n2nc(Nc3ccc4c(c3)CN(C)S4(=O)=O)c3c(=O)[nH]ccc32)CC1 [Example 5-70, methyl 4-(cyanomethyl)-4-[3-[(2-methyl-1,1-dioxo-2,3-dihydro-1,2-benzothiazol-5-yl)amino]-4-oxo-1H,4H,5H-pyrazolo[4,3-c]pyridin-1-yl]piperidine-1-carboxylate]",0.07 nM,0.58 nM
"CC(C)(C)OC(=O)N1CCC(CC#N)(n2nc(Nc3cc(Cn4cccn4)cc(Cn4cccn4)c3)c3c(=O)[nH]ccc32)CC1 [Example 5-60, tert-butyl 4-(3-(3,5-bis((1H-pyrazol-1-yl)methyl)phenylamino)-4-oxo-4,5-dihydropyrazolo[4,3-c]pyridin-1-yl)-4-(cyanomethyl)piperidine-1-carboxylate]",1.07 nM,0.46 nM
"CC(O)(c1ccc(Nc2nn([C@]3(CC#N)CCCOC3)c3cc[nH]c(=O)c23)cc1)C(F)(F)F (single isomer, unassigned) [Example 5-110, {(3S)-3-[4-oxo-3-({4-[(1S or 1R)-2,2,2-trifluoro-1-hydroxy-1-methylethyl]phenyl}amino)-4,5-dihydro-1H-pyrazolo[4,3-c]pyridin-1-yl]tetrahydro-2H-pyran-3-yl}acetonitrile]",0.16 nM,0.59 nM
"CC(C)(C)OC(=O)C(C)(C)N1Cc2cc(Nc3nn(C4(CC#N)CCCC4)c4cc[nH]c(=O)c34)ccc2C1=O [Example 5-140, tert-butyl 2-(5-((1-(1-(cyanomethyl)cyclopentyl)-4-oxo-4,5-dihydro-1H-pyrazolo[4,3-c]pyridin-3-yl)amino)-1-oxoisoindolin-2-yl)-2-methylpropanoate]",0.32 nM,0.74 nM
"CC(C)(C)OC(=O)[C@@H]1CC[C@@](CC#N)(n2nc(Nc3ccccc3)c3c(=O)[nH]ccc32)CO1 [Example 5-54, (2S,5S)-tert-butyl 5-(cyanomethyl)-5-(4-oxo-3-(phenylamino)-4,5-dihydro-1H-pyrazolo[4,3-c]pyridin-1-yl)tetrahydro-2H-pyran-2-carboxylate]",0.12 nM,1.62 nM
"Cc1cccc(Nc2nn(C3(CC#N)CCN(C(=O)OC(C)(C)C)CC3)c3cc[nH]c(=O)c23)c1 [Example 5-65, tert-butyl 4-(3-(m-toluidino)-4-oxo-4,5-dihydropyrazolo[4,3-c]pyridin-1-yl)-4-(cyanomethyl)piperidine-1-carboxylate]",0.21 nM,3.22 nM
"CS(=O)(=O)c1ccc(Nc2nn([C@]3(CC#N)CCCOC3)c3cc[nH]c(=O)c23)cc1 [Example 5-31, (S)-2-(3-(3-((4-(methylsulfonyl)phenyl)amino)-4-oxo-4,5-dihydro-1H-pyrazolo [4,3-c]pyridin-1-yl)tetrahydro-2H-pyran-3-yl)acetonitrile]",0.26 nM,1.64 nM
"CC(C)(C)OC(=O)N1CCC(CC#N)(n2nc(Nc3ccc4c(c3)CN(CC(F)(F)F)C4=O)c3c(=O)[nH]ccc32)CC1 [Example 5-5, tert-butyl 4-(cyanomethyl)-4-(4-oxo-3-{[1-oxo-2-(2,2,2-trifluoroethyl)-2,3-dihydro-1H-isoindol-5-yl]amino}-4,5-dihydro-1H-pyrazolo[4,3-c]pyridin-1-yl)piperidine-1-carboxylate]",0.28 nM,0.31 nM

# Continued, values first:
IC50 [1],IC50 [2],Compound
0.43 nM,0.68 nM,"CC(C)(C)OC(=O)N1CCC(CC#N)(n2nc(Nc3ccc(S(=O)(=O)N4CCCCC4)cc3)c3c(=O)[nH]ccc32)CC1 [Example 5-293, tert-butyl 4-(cyanomethyl)-4-(4-oxo-3-((4-(piperidin-1-ylsulfonyl)phenyl)amino)-4,5-dihydro-1H-pyrazolo[4,3-c]pyridin-1-yl)piperidine-1-carboxylate]"
0.66 nM,1.4 nM,"CN(C)S(=O)(=O)c1ccc(Nc2nn(C3(CC#N)CCOCC3)c3cc[nH]c(=O)c23)cc1 [Example 5-254, 4-((1-(4-(cyanomethyl)tetrahydro-2H-pyran-4-yl)-4-oxo-4,5-dihydro-1H-pyrazolo[4,3-c]pyridin-3-yl)amino)-N,N-dimethylbenzenesulfonamide]"
0.17 nM,0.09 nM,COC(c1ccc(Nc2nn([C@@]3(CC#N)CCN(C(=O)OC(C)(C)C)C[C@H]3F)c3cc[nH]c(=O)c23)cc1)C(F)(F)F (stereo partly shown) [Example 5-275]
0.12 nM,0.29 nM,"CCOC(=O)N1CCC(CC#N)(n2nc(Nc3ccc(S(=O)(=O)N(C)C)cc3)c3c(=O)[nH]ccc32)CC1 [Example 10-5, ethyl 4-(cyanomethyl)-4-(3-((4-(N,N-dimethylsulfamoyl)phenyl)amino)-4-oxo-4,5-dihydro-1H-pyrazolo[4,3-c]pyridin-1-yl)piperidine-1-carboxylate]"
0.11 nM,2.24 nM,"CC(C)(C)N1Cc2cc(Nc3nn([C@@]4(CC#N)CCOC4)c4cc[nH]c(=O)c34)ccc2S1(=O)=O (single isomer, unassigned) [Example 5-247, (S or R)-2-(3-(3-((2-(tert-butyl)-1,1-dioxido-2,3-dihydrobenzo[d]isothiazol-5-yl)amino)-4-oxo-4,5-dihydro-1H-pyrazolo[4,3-c]pyridin-1-yl)tetrahydrofuran-3-yl)acetonitrile]"
0.07 nM,0.08 nM,"Cc1cc(Nc2nn([C@]3(CC#N)CCOC[C@@H]3F)c3cc[nH]c(=O)c23)ccc1C(=O)N1CCOCC1 (single isomer, unassigned) [Example 5-258, 2-((3R,4R or 3S,4S)-3-fluoro-4-(3-((3-methyl-4-(morpholine-4-carbonyl)phenyl)amino)-4-oxo-4,5-dihydro-1H-pyrazolo[4,3-c]pyridin-1-yl)tetrahydro-2H-pyran-4-yl)acetonitrile]"
0.23 nM,2.5 nM,"CN(C)C(=O)[C@@H]1CC[C@@](CC#N)(n2nc(Nc3ccc(Cl)cc3)c3c(=O)[nH]ccc32)CO1 [Example 23, (2S,5S)-5-(3-((4-chlorophenyl)amino)-4-oxo-4,5-dihydro-1H-pyrazolo[4,3-c]pyridin-1-yl)-5-(cyanomethyl)-N,N-dimethyltetrahydro-2H-pyran-2-carboxamide]"
0.09 nM,0.51 nM,"CN(C)S(=O)(=O)c1ccc(Nc2nn(C3(CC#N)CCN(C(=O)C4CC(F)(F)C4)CC3)c3cc[nH]c(=O)c23)cc1 [Example 9-7, 4-[(1-{4-(cyanomethyl)-1-[(3,3-difluorocyclobutyl)carbonyl]piperidin-4-yl}-4-oxo-4,5-dihydro-1H-pyrazolo[4,3-c]pyridin-3-yl)amino]-N,N-dimethylbenzenesulfonamide]"
0.59 nM,0.68 nM,"CC(C)(C)OC(=O)[C@@H]1CC[C@@](CC#N)(n2nc(Nc3ccc4c(c3)CC(C)(C)C4(O)C(F)(F)F)c3c(=O)[nH]ccc32)CO1 (single isomer, unassigned) [Example 5-164, (2S,5S)-tert-butyl 5-(cyanomethyl)-5-(3-(((S or R)-1-hydroxy-2,2-dimethyl-1-(trifluoromethyl)-2,3-dihydro-1H-inden-5-yl)amino)-4-oxo-4,5-dihydro-1H-pyrazolo[4,3-c]pyridin-1-yl)tetrahydro-2H-pyran-2-carboxylate]"
0.14 nM,0.21 nM,"CC(C)(C)OC(=O)[C@@H]1CC[C@@](CC#N)(n2nc(Nc3ccc(S(=O)(=O)C(C)(C)C)cc3)c3c(=O)[nH]ccc32)CO1 [Example 5-235, (2S,5S)-tert-butyl 5-(3-((4-(tert-butylsulfonyl)phenyl)amino)-4-oxo-4,5-dihydro-1H-pyrazolo[4,3-c]pyridin-1-yl)-5-(cyanomethyl) tetrahydro-2H-pyran-2-carboxylate]"
0.33 nM,0.43 nM,"CC(C)(C)OC(=O)N1CCC(CC#N)(n2nc(Nc3ccc(C4(C(F)(F)F)CCNC4)cc3)c3c(=O)[nH]ccc32)CC1 (single isomer, unassigned) [Example 5-283, (S or R) tert-butyl 4-(cyanomethyl)-4-(4-oxo-3-((4-(3-(trifluoromethyl)pyrrolidin-3-yl)phenyl)amino)-4,5-dihydro-1H-pyrazolo[4,3-c]pyridin-1-yl)piperidine-1-carboxylate]"
0.1 nM,0.16 nM,"CN(C)S(=O)(=O)c1ccc(Nc2nn(C3(CC#N)CCN(C(=O)CC#N)CC3)c3cc[nH]c(=O)c23)cc1 [Example 9-25, 4-((1-(1-(2-cyanoacetyl)-4-(cyanomethyl)piperidin-4-yl)-4-oxo-4,5-dihydro-1H-pyrazolo[4,3-c]pyridin-3-yl)amino)-N,N-dimethylbenzenesulfonamide]"
0.16 nM,0.39 nM,"N#CC[C@@]1(n2nc(Nc3ccc(C(N4CCCC4)C(F)(F)F)cc3)c3c(=O)[nH]ccc32)CCCOC1 (single isomer, unassigned) [Example 5-198, {(3S)-3-[4-oxo-3-({4-[(1R or 1S)-2,2,2-trifluoro-1-pyrrolidin-1-ylethyl]phenyl}amino)-4,5-dihydro-1H-pyrazolo [4,3-c]pyridin-1-yl]tetrahydro-2H-pyran-3-yl}acetonitrile]"
